Reference: US10953015B2, “Use of adenosine receptor signaling to regulate P-gp function” (CORNELL UNIVERSITY, priority 2016, dated 2021)

Legend:
MMP9 = MMP9 expression in HBMVEC (western blot, IFA); assay type: cell-based, human; details: western blot and IFA
Text: FIG. 8A is a schematic diagram of the experimental procedure for analysis of Lexiscan®'s effect on P-gp solubility and excretion in primary brain endothelial cells (“HBMVEC”). FIGS. 8B-8C are western blots and graphs summarizing the experimental result of each western blot. FIGS. 8B-8C show the analysis of P-gp expression of HBMVEC upon activation with Lexiscan® at different time points after lysis with RIPA buffer (FIG. 8B) or CSK buffer to measure P-gp levels in the cytoskeletal fraction (FIG. 8C). Band intensity was normalized to GAPDH and graphed. […] Band intensity was normalized using GAPDH and plotted. FIG. 8E is a western blot of secreted P-gp in HBMVEC upon activation with Lexiscan® in absence or presence of an MMP9 inhibitor: both short and long exposures of western blot from MMP9 inhibitor-treated samples are shown. Band intensity was plotted as a graph. […] FIG. 8H is a graph summarizing the intensity of fluorescence of MMP9 from FIG. 8G. Fluorescent intensity of MMP9 was quantified and plotted as graph (n=20). **P<0.01 (2-tailed Student's t test, 1 representative result of 3 different experiments).
HCMEC-D3 and HBMVEC cells were plated in 12-well plates and were grown until they reached 100% confluency. […] The intensity of band was analyzed with densitometric analysis and plotted as a graph for analysis of time-course effect of AR signaling on P-gp expression.

P-gp [1] = experiment: Rho123 accumulation in MCF7 breast cancer cells; assay type: cell-based, human; details: 0.025 μM Lexiscan® concomitant with Rho123, vs vehicle control
P-gp [2] = experiment: Epirubicin accumulation and P-gp staining in MCF7 cells (fluorescence microscopy); assay type: cell-based, human; details: 1 μM
Procedure: MCF7 cells (human breast cancer cell line) were cultured in 24 well plates until they reached confluency. FIGS. 17A-17C are images of western blots of cells treated with vehicle control (i.e., DMSO) (“D”) or 1 μM of the broad spectrum AR agonist NECA (“N”) (FIG. 17A), 1 μM of the A2A AR agonist Lexiscan® (“L”) (FIG. 17B), or 1 μM of the A2B AR agonist BAY60 (“B”) (FIG. 17C), respectively for 24, 48, 72 hours. Cells were lysed with lysis buffer and expression levels of P-gp, MMP9, or VEGF analyzed by western blot. GAPDH was used as loading a control. FIG. 17D is a graph of experimental results showing that Lexiscan® down-regulates P-gp expression in MCF7 breast cancer cells. MCF7 breast cancer cells were treated with Lex (0.25 μM) concomitant with Rhodamine 123 (“Rho123”). […] Students T test, P<0.001. […] FIG. 17E is a fluorescence microscopy image showing MCF7 breast cancer cells grown on coverslips and treated with vehicle (DMSO, control), or A2 AR agonists, Lexiscan® (1 μM) or A1193 (1 μM) for 15 minutes in the presence of epirubicin. Cells were stained with an antibody to P-gp and mounted with DAPI. FIG. 17F is a graph of the fluorescent intensity quantified from FIG. 17E by measuring the mean fluorescent intensity (“MFI”) of epirubicin (pink) that is present in cell nuclei. ***=P<0.0001.
To further assess the modulation of A2A AR agonists on P-gp expression in MCF7 cells, applicants evaluated the accumulation of the P-gp substrate epirubicin in MCF7 cells. MCF7 cells were treated with DMSO (control), 1 μM Lexiscan®, or 1 μM of the A2A AR agonist A1193. […] In this case, the down-regulation of P-gp expression is equivalent to down-regulation of its function (Kim et al., “A2A Adenosine Receptor Modulates Drug Efflux Transporter P-Glycoprotein at the Blood-Brain Barrier,” J Clin Invest. 126(5):1717-33 (2016), which is hereby incorporated by reference in its entirety).

P-gp [3] = experiment: P-gp expression in intestinal organoids (mean fluorescence intensity); assay type: cell-based; details: organoids from C57BL6 mouse intestine; 1 μM; 15 minutes
Procedure: Freshly isolated intestines from wildtype […] mice were cultured and grown to confluency to generate Organoids, which are 3D organotypic cultures derived from primary intestinal tissues (either tissue subunits or single cells), embryonic stem cells (“ESCs”), and induced pluripotent stem cells (“iPSCs”). Organoids were treated with 1 μM Lexiscan® or A1193 (A2A AR agonist) for 15 minutes, washed, and stained with antibodies to P-gp and DAPI. Mean fluorescent intensity was measured in each organoid. Data presented as a measure of P-gp expression between the two agonists. *=significance where P<0.05.
Applicants next evaluated whether A2A AR agonists can modulate P-gp expression in gut epithelial cells. Freshly isolated intestines from wildtype C57BL6 mice were cultured and grown to confluency to generate Organoids, which are three-dimensional organotypic cultures derived from primary intestinal tissues (either tissue subunits or single cells), embryonic stem cells (“ESCs”), or induced pluripotent stem cells (“iPSCs”). Organoids were treated with the A2A AR agonists Lexiscan® or A1193 for 15 minutes, washed, and stained with antibodies to P-gp and DAPI.

## CNC(=O)c1cnn(-c2nc(N)c3ncn([C@@H]4O[C@H](CO)[C@@H](O)[C@H]4O)c3n2)c1 [Lexiscan®, 1-[6-amino-9-[(2R,3R,4S,5R)-3,4-dihydroxy-5-(hydroxymethyl)oxolan-2-yl]purin-2-yl]-N-methylpyrazole-4-carboxamide]
MMP9
  MMP9 expression: Increased expression of MMP9 was observed beginning at 5 minutes
P-gp [1]
  Rho123 accumulation: significant Rho123 accumulation occurred by 15 minutes and 60 minutes
P-gp [2]; 15 minutes
  P-gp expression (antibody staining): down-regulate P-gp expression
P-gp [2]; 15 minutes in the presence of epirubicin
  Epirubicin accumulation (MFI in cell nuclei): retained more epirubicin than those treated with control
P-gp [3]
  P-gp expression (mean fluorescent intensity): significantly down-regulates P-gp expression in freshly isolated and cultured colonic organoids
